Laboratory results reported in patent US12233106B2, “C-type natriuretic peptide variants to treat skeletal dysplasia in children” (priority 2021, dated 2025).

Assays:
clinical = conditions: human, in vivo, 15 ug/kg
From the text: Primary endpoints include length/height Z-score at Week 52 and evaluation of any adverse events. Secondary endpoints include AGV at Week 52, Bilateral X-rays of lower extremities, Lumbar spine X-rays, DXA of whole body and spine, AUC0-∞, AUC0-t, Cmax, Tmax, t1/2, CL/F, VZ/F, Hip monitoring clinical assessments, Bayley-III, WeeFIM, and ITQOL scores, CBCL scores, Anti-vosoritide total antibody (TAb), Anti-vosoritide antibody cross-reactivity with endogenous CNP, ANP, and BNP (TAb), Anti-vosoritide neutralizing antibody (NAb), CXM and bone-specific alkaline phosphatase, Collagen type II (CTX-II), Cyclic guanosine monophosphate (cGMP), anthropometric measurements, upper to lower body segment ratio, upper arm length to lower arm (forearm) length ratio, upper leg length (thigh) to knee to heel length ratio, upper leg length (thigh) to tibial length ratio, and arm span to standing height ratio.
The pharmacokinetics of vosoritide in the different populations of patients was also analyzed for any change in PK (Table 4). PD information (plasma cGMP and serum CXM) in 4 sentinel subjects and 33 randomized subjects (aged≥24 to <60 months) receiving 30 μg/kg vosoritide was available.

[1] = in vivo
[2] = normal human; cited from earlier work

Row | CL/F (clinical; Mean CL/F, range over visits) [mL/min/kg] | Vd/F (clinical; Mean Vz/F, range over visits) [L/kg] | Tmax (clinical; Median Tmax, range over visits) [min] | Cmax (clinical; mean Cmax, range over visits) [ng/mL] | half-life (clinical; mean t1/2, range over visits) [min] | Tmax (clinical; sc, tmax, median [minimum, maximum]) [min] | Compound | Adverse event of grade two or higher related to the study drug (CTCAE v5.0) [1] | in vivo (plasma) half-life [2] [min]
1 | 82.1 to 150 | 2.65 to 3.8 | 14 to 15.5 | 3.81 to 6.86 | 15.2 to 29.3 | 14 | CC[C@H](C)[C@@H]1NC(=O)[C@H](CCCNC(=N)N)NC(=O)[C@H](CC(=O)O)NC(=O)[C@H](CC(C)C)NC(=O)[C@H](CCCCN)NC(=O)[C@H](CC(C)C)NC(=O)CNC(=O)[C@H](Cc2ccccc2)NC(=O)[C@@H](NC(=O)CNC(=O)[C@H](CCCCN)NC(=O)[C@H](CO)NC(=O)[C@H](CC(C)C)NC(=O)CNC(=O)[C@H](CCCCN)NC(=O)[C@H](CCCCN)NC(=O)[C@H](CC(N)=O)NC(=O)[C@H](C)NC(=O)CNC(=O)[C@H](CCCCN)NC(=O)[C@H](Cc2ccc(O)cc2)NC(=O)[C@H](CCCCN)NC(=O)[C@H](CCCNC(=N)N)NC(=O)[C@H](C)NC(=O)[C@H](CC(N)=O)NC(=O)[C@@H]2CCCN2C(=O)[C@H](Cc2c[nH]cn2)NC(=O)[C@H](CCC(=O)O)NC(=O)[C@H](CCC(N)=O)NC(=O)CNC(=O)[C@@H]2CCCN2)CSSC[C@@H](C(=O)O)NC(=O)CNC(=O)[C@H](CC(C)C)NC(=O)CNC(=O)[C@H](CO)NC(=O)[C@H](CCSC)NC(=O)[C@H](CO)NC(=O)CNC1=O [vosoritide] | No patient | –
2 | – | – | – | – | – | – | CNP: mature 22-amino acid C-type natriuretic peptide (wild type CNP-22) | – | 2.6
